Laboratory results published in patent US20100168176A1, “NOVEL COMPOUNDS, PHARMACEUTICAL COMPOSITIONS CONTAINING SAME, AND METHODS OF USE FOR SAME” (FASGEN LLC, priority 2006, published 2010).
Values after ≈ are worked out from the molar mass of the structure shown.

Assays:
[1] = tested on: MCF-7 human breast cancer cells; test: [14C]acetate incorporation into total lipids; type: cell-based; conditions: MCF7
Description: Measurement of [^14 C]acetate Incorporation into Total Lipids and Determination of IC50 of Compounds
This assay measures the incorporation of [^14C]acetate into total lipids and is a measure of fatty acid synthesis pathway activity in vitro. It is utilized to measure inhibition of fatty acid synthesis in vitro.
MCF-7 human breast cancer cells cultured as above, are plated at 5×10^4 cells per well in 24-well plates. Following overnight incubation, the compounds to be tested, solubilized in DMSO, are added at 5, 10, and 20 μg/ml in triplicate, with lower concentrations tested if necessary. DMSO is added to triplicate wells for a vehicle control. C75 is run at 5 and 10 μg/ml in triplicate as positive controls. After 4 hours of incubation, 0.25 μCi of [^14C]acetate (10 μl volume) is added to each well.
After 2 hours of additional incubation, medium is aspirated from the wells and 800 μl of chloroform:methanol (2:1) and 700 μl of 4 mM MgCl2 is added to each well. Contents of each well are transferred to 1.5 Eppendorf tubes, and spun at full-speed for 2 minutes in a high-speed Eppendorf Microcentrifuge 5415D. After removal of the aqueous (upper) layer, an additional 700 μl of chloroform:methanol (2:1) and 500 μl of 4 mM MgCl2 are added to each tube and then centrifuged for 1 minutes as above. The aqueous layer is removed with a Pasteur pipette and discarded. An additional 400 μl of chloroform:methanol (2:1) and 200 μl of 4 mM MgCl2 are added to each tube, then centrifuged and aqueous layer is discarded. The lower (organic) phase is transferred into a scintillation vial and dried at 40° C. under N2 gas. Once dried, 3 ml of scintillant (APB #NBC5104) is added and vials are counted for ^14C. The Beckman Scintillation counter calculates the average cpm values for triplicates.
The IC50 for the compounds is defined as the concentration of drug leading to a 50% reduction in [^14C]acetate incorporation into lipids compared to controls. This is determined by plotting the average cpm for each inhibitor concentration tested, performing linear regression and computing the best-fit line, r^2 values, and 95% confidence intervals. The average cpm values are computed by the Beckman scintillation counter (Model LS6500) for each compound concentration. Computation of linear regression, best-fit line, r^2, and 95% confidence intervals are calculated using Prism Version 3.0 (Graph Pad Software).

OV = test: XTT cytotoxicity assay, OV; type: cell-based
[2] = tested on: MCF-7 human breast cancer cells; test: XTT cytotoxicity assay, MCF-7 (M); type: cell-based; conditions: (M) or no code, MCF-7, 72 hours; for IC50: Homo sapiens, MCF7
Description: The XTT assay is a non-radioactive alternative for the [^51Cr] release cytotoxicity assay. XTT is a tetrazolium salt that is reduced to a formazan dye only by metabolically active, viable cells. The reduction of XTT is measured spectrophotometrically as OD490-OD650.
To measure the cytotoxicity of specific compounds against cancer cells, 9×10^3 MCF-7 human breast cancer cells, obtained from the American Type Culture Collection are plated per well in 96 well plates in DMEM medium with 10% fetal bovine serum, insulin, penicillin, and streptomycin. Following overnight culture at 37° C. and 5% CO2, the compounds to be tested, dissolved in DMSO, are added to the wells in 1 μl volume at the following concentrations: 80, 40, 20, 10, 5, 2.5, 1.25, and 0.625 μg/ml in triplicate. Additional concentrations are tested if required. 1 μl of DMSO is added to triplicate wells are the vehicle control. C75 is run at 40, 20, 10, […], 10, and 5 in triplicate as positive controls.
After 72 hours of incubation, cells are incubated for 4 hours with the XTT reagent as per manufacturer's instructions (Cell Proliferation Kit II (XTT) Roche). Plates are read at OD490 and OD650 on a Molecular Devices SpectraMax Plus Spectrophotometer. Three wells containing the XTT reagent without cells serve as the plate blank. XTT data are reported as OD490-OD650. Averages and standard error of the mean are computed using SOFTmax Pro software ([…]).
The IC50 for the compounds is defined as the concentration of drug leading to a 50% reduction in OD400-OD650 compared to controls. The OD400-OD650 are computed by the SOFTmax PRO software (Molecular Devices) for each compound concentration. IC50 is calculated by linear regression, plotting the FAS activity as percent of control versus drug concentrations. Linear regression, best-fit line, r^2, and 95% confidence intervals are determined using Prism Version 3.0 (Graph Pad Software).

H = test: Crystal violet cell growth assay, H; type: cell-based; conditions: read-out: Cr. Violet (IC50)
Description: Crystal Violet Cell Growth Assay
The crystal violet assay measure cell growth but not cytotoxicity. This assay employs crystal violet staining of fixed cells in 96-well plates with subsequent solubilization and measurement of OD490 on a spectrophotometer. The OD490 corresponds to cell growth per unit time measured. Cells are treated with the compounds of interest or vehicle controls and IC50 for each compound is computed.
To measure the cytotoxicity of specific compounds against cancer cells, 5×10^4 MCF-7 human breast cancer cells, obtained from the American Type Culture Collection are plated per well in 24 well plates in DMEM medium with 10% fetal bovine serum, penicillin, and streptomycin. Following overnight culture at 37° C. and 5% CO2, the compounds to be tested, dissolved in DMSO, are added to the wells in 1 μl volume at the following concentrations: 50, 40, 30, 20, and 10 μg/ml in triplicate. Additional concentrations are tested if required. 1 μl of DMSO is added to triplicate wells are the vehicle control. C75 is run at 10, and 5 μg/ml in triplicate as positive controls.
After 72 hours of incubation, cells are stained with 0.5 ml of Crystal Violet stain (0.5% in 25% methanol) in each well. After 10 minutes, wells are rinsed, air dried, and then solubilized with 0.5 ml 10% sodium dodecylsulfate with shaking for 2 hours. Following transfer of 100 μl from each well to a 96-well plate, plates are read at OD490 on a Molecular Devices SpectraMax Plus Spectrophotometer Average OD490 values are computed using SOFTmax Pro Software (Molecular Devices) and IC50 values are determined by linear regression analysis using Prism version 3.02 (Graph Pad Software, San Diego).

FAO = FAO SC 150 / FAO Max; conditions: for FAO Max: at the concentration given under E18
[3] = Weight loss screen in Balb/C mice; type: in vivo; conditions: 60 mg/kg intraperitoneally
Description: Weight Loss Screen for Novel FAS Inhibitors
Balb/C mice (Jackson Labs) are utilized for the initial weight loss screening. Animals are housed in temperature and 12 hour day/night cycle rooms and fed mouse chow and water ad lib. Three mice are utilized for each compound tested with vehicle controls in triplicate per experiment. For the experiments, mice are housed separately for each compound tested three mice to a cage. Compounds are diluted in DMSO at 10 mg/ml and mice are injected intraperitoneally with 60 mg/kg in approximately 100 μl of DMSO or with vehicle alone. Mice are observed and weighed daily; average weights and standard errors are computed with Excel (Microsoft). The experiment continues until treated animals reach their pretreatment weights.

[4] = tested on: Mycobacterium tuberculosis; conditions: in vitro; cited from earlier work
viral HIV protease = viral HIV protease (Human immunodeficiency virus type 1 group M subtype B, UniProt P04585); conditions: cited from earlier work
Raji cells = conditions: cited from earlier work
[5] = target: rat liver acyl-CoA synthetase; conditions: rat liver enzyme; read-out: 50% inhibition of rat liver acyl-CoA synthetase; cited from earlier work
purified human FAS = target: T1, purified human FAS (Homo sapiens, UniProt P49327); test: FAS enzymatic activity (malonyl-CoA dependent NADPH oxidation, OD340); type: biochemical; conditions: purified human FAS from ZR-75-1 cells
T1 construct: Human FAS was purified from cultured ZR-75-1 human breast cancer cells; endogenous in cells; host or cells: ZR-75-1 human breast cancer cells (ATCC); Purified by hypotonic lysis, PEG precipitations and Mono Q anion exchange
Description: Purification of FAS from ZR-75-1 Human Breast Cancer Cells.
Human FAS was purified from cultured ZR-75-1 human breast cancer cells obtained from the American Type Culture Collection. The procedure, adapted from Linn et al., 1981, and Kuhajda et al., 1994, utilizes hypotonic lysis, successive polyethyleneglycol (PEG) precipitations, and anion exchange chromatography. ZR-75-1 cells are cultured at 37° C. with 5% CO2 in RPMI culture medium with 10% fetal bovine serum, penicillin and streptomycin.
Ten T150 flasks of confluent cells are lysed with 1.5 ml lysis buffer (20 mM Tris-HCl, pH 7.5, 1 mM EDTA, 0.1 mM phenylmethanesulfonyl fluoride (PMSF), 0.1% Igepal CA-630) and dounce homogenized on ice for 20 strokes. The lysate is centrifuged in JA-20 rotor (Beckman) at 20,000 rpm for 30 minutes at 4° C. and the supernatant is brought to 42 ml with lysis buffer. A solution of 50% PEG 8000 in lysis buffer is added slowly to the supernatant to a final concentration of 7.5%. After rocking for 60 minutes at 4° C., the solution is centrifuged in JA-20 rotor (Beckman) at 15,000 rpm for 30 minutes at 4° C. Solid PEG 8000 is then added to the supernatant to a final concentration of 15%. After the rocking and centrifugation is repeated as above, the pellet is resuspended overnight at 4° C. in 10 ml of Buffer A (20 mM K2HPO4, pH 7.4). […] FAS protein concentration is determined using the Coomassie Plus Protein Assay Reagent (Pierce) according to manufacturer's specifications using BSA as a standard. […]
FAS activity is measured by monitoring the malonyl-CoA dependent oxidation of NADPH spectrophotometrically at OD340 in 96-well plates (Dils et al and Arslanian et al, 1975). […]
The assay is performed on a Molecular Devices SpectraMax Plus Spectrophotometer. […] Using the kinetic protocol, the wells are blanked on duplicate wells containing 100 μl of 100 mM K2HPO4, pH 6.5 and the plate is read at OD340 at 10 sec intervals for 5 minutes to measure any malonyl-CoA independent oxidation of NADPH. […] The plate is read again as above with the kinetic protocol to measure the malonyl-CoA dependent NADPH oxidation. […]

T1 sequence (P49327 whole entry): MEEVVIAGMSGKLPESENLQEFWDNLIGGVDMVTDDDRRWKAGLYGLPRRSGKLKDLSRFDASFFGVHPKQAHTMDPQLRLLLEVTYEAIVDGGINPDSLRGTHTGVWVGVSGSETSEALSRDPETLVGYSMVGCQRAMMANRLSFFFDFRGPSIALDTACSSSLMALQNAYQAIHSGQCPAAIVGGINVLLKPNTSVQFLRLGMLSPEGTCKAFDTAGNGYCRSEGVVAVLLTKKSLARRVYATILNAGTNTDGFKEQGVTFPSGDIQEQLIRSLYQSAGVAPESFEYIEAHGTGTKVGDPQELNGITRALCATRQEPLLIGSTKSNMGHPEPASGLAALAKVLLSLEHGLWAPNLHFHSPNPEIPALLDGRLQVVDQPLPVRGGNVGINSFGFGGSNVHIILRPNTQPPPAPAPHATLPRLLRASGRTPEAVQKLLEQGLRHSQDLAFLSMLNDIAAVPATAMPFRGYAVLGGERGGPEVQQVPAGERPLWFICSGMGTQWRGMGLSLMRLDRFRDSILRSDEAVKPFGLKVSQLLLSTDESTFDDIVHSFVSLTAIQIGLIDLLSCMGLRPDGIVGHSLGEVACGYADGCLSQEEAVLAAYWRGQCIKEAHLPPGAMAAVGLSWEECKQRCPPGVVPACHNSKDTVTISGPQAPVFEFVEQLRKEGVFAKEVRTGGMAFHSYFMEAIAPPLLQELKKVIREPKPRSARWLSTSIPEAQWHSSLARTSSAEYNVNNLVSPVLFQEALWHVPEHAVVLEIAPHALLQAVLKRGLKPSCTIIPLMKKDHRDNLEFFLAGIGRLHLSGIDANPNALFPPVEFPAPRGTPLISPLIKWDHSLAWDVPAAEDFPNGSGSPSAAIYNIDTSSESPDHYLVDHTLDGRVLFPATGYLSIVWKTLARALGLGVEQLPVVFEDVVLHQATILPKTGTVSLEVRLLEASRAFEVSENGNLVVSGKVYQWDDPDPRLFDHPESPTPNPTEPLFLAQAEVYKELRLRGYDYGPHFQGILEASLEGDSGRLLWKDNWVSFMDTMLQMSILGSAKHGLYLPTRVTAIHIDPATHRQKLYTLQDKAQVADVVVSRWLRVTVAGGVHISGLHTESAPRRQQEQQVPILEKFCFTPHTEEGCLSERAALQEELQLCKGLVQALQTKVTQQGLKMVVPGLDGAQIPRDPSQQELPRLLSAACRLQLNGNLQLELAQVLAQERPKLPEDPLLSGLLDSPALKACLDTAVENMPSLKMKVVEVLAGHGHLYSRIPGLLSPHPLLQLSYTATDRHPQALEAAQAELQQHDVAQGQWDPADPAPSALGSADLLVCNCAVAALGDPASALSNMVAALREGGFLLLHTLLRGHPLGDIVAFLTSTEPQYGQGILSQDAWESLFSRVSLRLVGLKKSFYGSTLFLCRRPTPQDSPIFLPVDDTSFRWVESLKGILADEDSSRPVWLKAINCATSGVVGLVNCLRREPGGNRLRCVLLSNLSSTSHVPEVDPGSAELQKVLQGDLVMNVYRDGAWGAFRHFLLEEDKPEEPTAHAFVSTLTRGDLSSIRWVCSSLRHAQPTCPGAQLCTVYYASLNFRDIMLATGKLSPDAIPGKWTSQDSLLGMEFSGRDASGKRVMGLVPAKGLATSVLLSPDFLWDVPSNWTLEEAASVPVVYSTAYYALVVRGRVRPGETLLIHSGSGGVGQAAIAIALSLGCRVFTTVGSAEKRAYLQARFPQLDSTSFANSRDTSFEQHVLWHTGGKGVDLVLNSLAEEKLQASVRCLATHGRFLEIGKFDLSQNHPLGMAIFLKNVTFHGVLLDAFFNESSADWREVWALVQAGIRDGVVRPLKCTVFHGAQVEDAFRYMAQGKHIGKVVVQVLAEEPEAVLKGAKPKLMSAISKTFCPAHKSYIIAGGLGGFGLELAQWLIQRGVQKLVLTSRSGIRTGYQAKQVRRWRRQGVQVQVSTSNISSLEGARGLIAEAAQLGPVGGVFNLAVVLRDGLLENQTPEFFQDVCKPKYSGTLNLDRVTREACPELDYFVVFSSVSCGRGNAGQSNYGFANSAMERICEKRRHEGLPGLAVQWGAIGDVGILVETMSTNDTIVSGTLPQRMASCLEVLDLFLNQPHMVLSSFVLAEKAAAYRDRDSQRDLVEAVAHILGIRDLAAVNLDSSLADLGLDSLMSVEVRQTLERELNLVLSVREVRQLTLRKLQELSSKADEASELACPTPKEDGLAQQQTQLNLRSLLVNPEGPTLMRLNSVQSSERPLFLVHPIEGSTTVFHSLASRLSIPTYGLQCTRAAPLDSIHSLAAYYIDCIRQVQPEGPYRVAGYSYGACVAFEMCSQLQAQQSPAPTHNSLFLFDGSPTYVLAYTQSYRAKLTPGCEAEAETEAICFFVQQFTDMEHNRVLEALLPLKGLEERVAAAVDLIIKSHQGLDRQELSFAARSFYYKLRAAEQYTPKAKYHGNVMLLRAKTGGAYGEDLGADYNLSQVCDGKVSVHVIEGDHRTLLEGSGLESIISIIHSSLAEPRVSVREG

Compound	IC50 [1] [µg/mL]	IC50 (OV) [µg/mL]	IC50 [2] [µg/mL]	IC50 (H) [µg/mL]	FAO Max: concentration at which the maximum was seen (FAO)	FAO SC 150 (FAO)	FAO Max (FAO)	further results
CCCCCCCCC1(C)SC(=O)C=C1OCC(=O)NNc1cc(C(F)(F)F)ccc1Cl (centres unmarked) [Compound 16, (5-Methyl-5-octyl-2-oxo-thiophen-4-yloxy)-acetic-acid-N′-[2-chloro-5-(trifluoromethyl)phenyl]-hydrazide]	16.5 (≈ 33.5 µM)	7.2 (≈ 14.6 µM)	6 (≈ 12.2 µM)	5.8 (≈ 11.8 µM)	6.25 µg/mL	Neg	137% @	Weight Loss ([3]; day 3): 60 mg/kg: 1.7 % (day 3)
CCCCCCCCC1(C)SC(=O)C=C1OCC(=O)NNc1ccc(C(F)(F)F)cc1 (centres unmarked) [Compound 12, (5-Methyl-5-octyl-2-oxo-thiophen-4-yloxy)-acetic-acid-N′-(4-trifluoromethylphenyl)-hydrazide]	11.3 (≈ 24.6 µM)	9.6 (≈ 20.9 µM)	5.7 (≈ 12.4 µM)	4.8 (≈ 10.5 µM)	1.56 μg/ml ug/ml	Neg	118% at	Weight Loss ([3]; day 2): 60 mg/kg: 2.7% (day 2)
C/C=C/C/C=C/CCC(=O)[C@H]1O[C@H]1C(N)=O [cerulenin, (2S,3R)-2,3-epoxy-4-oxo-7,10 dodecadienoyl amide]								activity against Mycobacterium tuberculosis [4]: no activity was found; inhibition of viral HIV protease at (viral HIV protease): 5 mg/mL
CCCC=CCC=CC=CC=NN=NO [Triacsin C, 1-hydroxy-3-(E, E, E-2′,4′,7′-undecatrienylidine) triazene]								growth inhibition in Raji cells at (Raji cells): 1.0 µM; IC50 [5]: 8.7 µM
(5-Methyl-5-hexyl-2-oxo-thiophen-4-yloxy)-acetic-acid-M-(4-chlorophenyl)-hydrazide [Compound 21]					0.024 μg/ml ug/ml	Neg	104% at	XTT (IC50) (OV): 11.2 µg/mL; XTT (IC50) [2]: 9.8 μg/ml (M) ug/ml; FAS (IC50) (purified human FAS): Neg
